Assay results published in US20210317092A1 (BAYER PHARMA AKTIENGESELLSCHAFT, priority 2016, published 2021).
Read-outs that look alike come from different tables or passages of the source.

How the values were obtained:
[1] = target: T1, human Bradykinin B1 receptor (Homo sapiens, UniProt P46663); test: Calcium flux Assay (FLIPR) with recombinant CHO-K1 cells expressing human Bradykinin B1 receptor, in presence (hB1 IC50) or absence (hB1 free IC50) of 0.1% BSA; format: cell-based
T1 construct: host or cells: CHO-K1
T1 sequence (P46663 1-353): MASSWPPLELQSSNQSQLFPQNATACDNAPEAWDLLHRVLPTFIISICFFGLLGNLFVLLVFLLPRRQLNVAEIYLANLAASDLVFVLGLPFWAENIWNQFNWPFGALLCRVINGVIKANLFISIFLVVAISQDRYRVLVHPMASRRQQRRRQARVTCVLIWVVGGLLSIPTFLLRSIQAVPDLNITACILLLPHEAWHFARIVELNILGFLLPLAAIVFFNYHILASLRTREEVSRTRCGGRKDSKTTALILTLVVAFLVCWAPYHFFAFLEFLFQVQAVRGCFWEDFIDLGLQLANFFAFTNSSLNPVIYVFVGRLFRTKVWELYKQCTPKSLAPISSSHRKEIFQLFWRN

[2] = target: T2, native human Bradykinin B1 receptor (Homo sapiens, UniProt P46663); test: Calcium flux Assay (FLIPR) with human fibroblasts expressing Bradykinin B1 receptor (hB1 IMR-90); format: cell-based; conditions: IMR-90 human fibroblasts expressing native Bradykinin B1 receptor
T2 construct: which express native human Bradykinin B1 receptor after induction with human IL-10; Coriell Institute; host or cells: IMR-90 human foetal lung fibroblasts, cytokine-induced
T2 sequence (P46663 1-353): T1 sequence (P46663 1-353)
Method: Calcium flux Assay (FLIPR) with human fibroblasts expressing Bradykinin B1 receptor (hB1 IMR-90)
The Calcium flux Assay was carried out utilising IMR-90 human foetal lung fibroblasts (American Type Culture Collection, Rockville, Md.; and Coriell Institute, Camden, N.J.), which express native human Bradykinin B1 receptor after induction with human […].
The fibroblasts were cultured in complete growth media comprised of Dulbecco's modified Eagle's medium (DMEM; Sigma) containing 10% foetal bovine serum, 4 mM L-glutamine, and 1% nonessential amino acids. The cells were maintained in a humidified atmosphere with 5% CO2 at 37° C. and were sub-cultured at a ratio of 1:3, every other day.
For the assay, IMR-90 fibroblasts were harvested using TrypLE Express (GIBCO/Invitrogen) and seeded into 384-well plates (Corning Cellbinding Surface, Cat. 3683) at a density of 15000 cells/well. The following day, cells were treated with 0.35 ng/mL human […] in 10% FBS/MEM for 3h to up-regulate Bradykinin B1 receptor. Induced cells were loaded with fluorescent calcium indicator by incubation with 2.5 μM Fluo-4/AM (Invitrogen) at 37° C., 5% CO2 for 2 h in the presence of 2.5 mM probenecid in 1% FBS/MEM. Extracellular dye was removed by washing with assay buffer (2.5 mM probenecid and 0.1% BSA in 20 mM HEPES/HBSS without bicarbonate or phenol red, pH 7.5). Compound examples were assayed at 8 concentrations in triplicate. After addition of compound examples to the cell plate and incubation for 30 min at 28° C., the addition of Bradykinin B1 agonist Lys-(Des-Arg)-Bradykinin (Bachem, Brackley) at a final concentration of EC90 was carried out on the FLIPR instrument while continuously monitoring Ca^2+-dependent fluorescence at 538 nm. A peptide antagonist Lys-(Des-Arg-Leu)-Bradykinin (Bachem, Brackley) at 20 µM was used to determine the full inhibition as control. IC50 values were determined by the same way described for the FLIPR assay with recombinant cells.

[3] = in presence of 0.1% BSA, read-out: hB1 IC50
[4] = in absence of 0.1% BSA, read-out: hB1 free IC50

Compound | IC50 [1, 3] [nM] | IC50 [2] [nM] | IC50 [1, 4] [nM]
COc1ccc(-c2ccc(NC(=O)C3(c4ccccc4Cl)CC3)cc2-c2nnn[nH]2)cc1OC [Example 36, 1-(2-chlorophenyl)-N-[3′,4′-dimethoxy-2-(1H-tetrazol-5-yl)biphenyl-4-yl]cyclopropane carboxamide] | 128 | 104 | 
COc1ccc(-c2ccc(NC(=O)C3(c4ccc(C(F)(F)F)cc4)CC3)cc2-c2nnn[nH]2)cc1OC [Example 44, N-[3′,4′-dimethoxy-2-(1H-tetrazol-5-yl)biphenyl-4-yl]-1-[4-(trifluoromethyl)phenyl] cyclopropane-carboxamide] | 23 | 5.47 | 5.7
COc1ccc(-c2ccc(NC(=O)C3(c4ccc(F)c(C)c4)CC3)cc2-c2nnn[nH]2)cc1OC [Example 48, N-[3′,4′-dimethoxy-2-(1H-tetrazol-5-yl)biphenyl-4-yl]-1-(4-fluoro-3-methylphenyl) cyclopropane-carboxamide] | 50.5 | 29.3 | 
COc1ccc(-c2ccc(NC(=O)C3(C4CCC(C)(C)CC4)CC3)cc2-c2nnn[nH]2)cc1OC [Example 56, N-[3′,4′-dimethoxy-2-(1H-tetrazol-5-yl)biphenyl-4-yl]-1-(4,4-dimethyl-cyclohexyl) cyclopropane-carboxamide] | 21.7 | 20.2 | 15.3
CCOc1ccc(-c2ccc(NC(=O)C3(c4ccc(Cl)c(F)c4)CC3)cc2-c2nnn[nH]2)cn1 [Example 70, 1-(4-chloro-3-fluorophenyl)-N-[4-(6-ethoxypyridin-3-yl)-3-(1H-tetrazol-5-yl)phenyl] cyclopropane-carboxamide] | 12.5 | 6 | 9.27
CCOc1ccc(-c2ccc(NC(=O)C3(c4ccc(C(F)(F)F)cc4F)CC3)cc2-c2nnn[nH]2)cn1 [Example 72, N-[4-(6-ethoxypyridin-3-yl)-3-(1H-tetrazol-5-yl)phenyl]-1-[2-fluoro-4-(trifluoromethyl)phenyl] cyclopropane-carboxamide] | 15.5 | 5.72 | 6.82
CCOc1ccc(-c2ccc(NC(=O)C3(c4cccc(Cl)c4F)CC3)cc2-c2nnn[nH]2)cn1 [Example 73, 1-(3-chloro-2-fluorophenyl)-N-[4-(6-ethoxypyridin-3-yl)-3-(1H-tetrazol-5-yl)phenyl] cyclopropane-carboxamide] | 16.2 | 7.98 | 13.9
CCOc1ccc(-c2ccc(NC(=O)C3(c4cc(F)cc(Cl)c4)CC3)cc2-c2nnn[nH]2)cn1 [Example 77, 1-(3-chloro-5-fluorophenyl)-N-[4-(6-ethoxypyridin-3 yl)-3-(1H-tetrazol-5-yl)phenyl] cyclopropane-carboxamide] | 24 | 21.7 | 16.1
CCOc1ccc(-c2ccc(NC(=O)C3(c4cc(Cl)ccc4F)CC3)cc2-c2nnn[nH]2)cn1 [Example 78, 1-(5-chloro-2-fluorophenyl)-N-[4-(6-ethoxypyridin-3-yl)-3-(1H-tetrazol-5-yl)phenyl] cyclopropane-carboxamide] | 24.5 | 15.8 | 21.2
CCOc1ccc(-c2ccc(NC(=O)C3(c4cccc(F)c4F)CC3)cc2-c2nnn[nH]2)cn1 [Example 79, 1-(2,3-difluorophenyl)-N-[4-(6-ethoxypyridin-3-yl)-3-(1H-tetrazol-5-yl)phenyl] cyclopropane-carboxamide] | 25.1 | 24.7 | 
CCOc1ccc(-c2ccc(NC(=O)C3(c4cccc(F)c4)CC3)cc2-c2nnn[nH]2)cn1 [Example 80, N-[4-(6-ethoxypyridin-3-yl)-3-(1H-tetrazol-5-yl)phenyl]-1-(3-fluorophenyl) cyclopropane-carboxamide] | 25.6 | 27.2 | 29.6
CCOc1ccc(-c2ccc(NC(=O)C3(c4ccc(F)cc4)CC3)cc2-c2nnn[nH]2)cn1 [Example 81, N-[4-(6-ethoxypyridin-3-yl)-3-(1H-tetrazol-5-yl)phenyl]-1-(4-fluorophenyl) cyclopropane-carboxamide] | 27.5 | 21.2 | 29.1
CCOc1ccc(-c2ccc(NC(=O)C3(c4ccc(F)c(F)c4)CC3)cc2-c2nnn[nH]2)cn1 [Example 82, 1-(3,4-difluorophenyl)-N-[4-(6-ethoxypyridin-3-yl)-3-(1H-tetrazol-5-yl)phenyl] cyclopropane-carboxamide] | 33.3 | 14.9 | 29.1
CCOc1ccc(-c2ccc(NC(=O)C3(c4cc(F)ccc4F)CC3)cc2-c2nnn[nH]2)cn1 [Example 83, 1-(2,5-difluorophenyl)-N-[4-(6-ethoxypyridin-3-yl)-3-(1H-tetrazol-5-yl)phenyl] cyclopropane-carboxamide] | 37.5 | 33 | 60.5
CCOc1ccc(-c2ccc(NC(=O)C3(c4ccc(OC)c(F)c4)CC3)cc2-c2nnn[nH]2)cn1 [Example 86, N-[4-(6-ethoxypyridin-3-yl)-3-(1H-tetrazol-5-yl)phenyl]-1-(3-fluoro-4-methoxyphenyl) cyclopropane-carboxamide] | 92.5 | 27.4 | 40.3
CCOc1ccc(-c2ccc(NC(=O)C3(C(F)(F)F)CC3)cc2-c2nnn[nH]2)cn1 [Example 91, N-[4-(6-ethoxypyridin-3-yl)-3-(1H-tetrazol-5-yl)phenyl]-1-(trifluoromethyl) cyclopropane-carboxamide] | 174 | 161 | 452
CCOc1ccc(-c2ccc(NC(=O)C3(c4ccccc4F)CC3)cc2-c2nnn[nH]2)cn1 [Example 92, N-[4-(6-ethoxypyridin-3-yl)-3-(1H-tetrazol-5-yl)phenyl]-1-(2-fluorophenyl) cyclopropane-carboxamide] | 39.8 | 25.3 | 37.7
CCOc1ccc(-c2ccc(NC(=O)C3(c4cccc(C)c4)CC3)cc2-c2nnn[nH]2)cn1 [Example 94, N-[4-(6-ethoxypyridin-3-yl)-3-(1H-tetrazol-5-yl)phenyl]-1-(3-methylphenyl) cyclopropane-carboxamide] | 23.8 | 25.1 | 
CCCc1cccc(C2(C(=O)Nc3ccc(-c4ccc(OCC)nc4)c(-c4nnn[nH]4)c3)CC2)c1 [Example 96, N-[4-(6-ethoxypyridin-3-yl)-3-(1H-tetrazol-5-yl)phenyl]-1-(3-propylphenyl) cyclopropane-carboxamide] | 6.58 | 15.3 | 5.32
CCOc1ccc(-c2ccc(NC(=O)C3(c4cccc(C(C)(C)C)c4)CC3)cc2-c2nnn[nH]2)cn1 [Example 97, 1-(3-tert-butylphenyl)-N-[4-(6-ethoxypyridin-3-yl)-3-(1H-tetrazol-5-yl)phenyl] cyclopropane-carboxamide] | 138 | 101 | 
CCOc1ccc(-c2ccc(NC(=O)C3(c4cccc(C(F)(F)F)c4)CC3)cc2-c2nnn[nH]2)cn1 [Example 98, N-[4-(6-ethoxypyridin-3-yl)-3-(1H-tetrazol-5-yl)phenyl]-1-[3-(trifluoromethyl)phenyl] cyclopropane-carboxamide] | 8.67 | 5.78 | 
CCOc1ccc(-c2ccc(NC(=O)C3(c4ccc(C)cc4)CC3)cc2-c2nnn[nH]2)cn1 [Example 99, N-[4-(6-ethoxypyridin-3-yl)-3-(1H-tetrazol-5-yl)phenyl]-1-(4-methylphenyl) cyclopropane-carboxamide] | 24 | 11.8 | 
CCOc1ccc(-c2ccc(NC(=O)C3(c4ccc(Cl)cc4)CC3)cc2-c2nnn[nH]2)cn1 [Example 100, 1-(4-chlorophenyl)-N-[4-(6-ethoxypyridin-3-yl)-3-(1H-tetrazol-5-yl)phenyl] cyclopropane-carboxamide] | 20.2 | 8.84 | 5.56
